Data published in patent US20230159510A1, “NOVEL PRMT5 INHIBITORS” (AMGEN INC., priority 2020, published 2023).
Where two headings read alike, the source gives them in different places.

Tests used:
HCT116 MTAP null cells = assay: HCT116 proliferation assay, MTAP null cells (CellTiter-Glo, 6 days); format: cell-based; conditions: 144 h, read-out: Protif_ HCT116-MTAP null IC50
In short: (§1)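 Readout is CellTiter-Glo luminescence after 6 days of drug exposure at 37 °C. Compounds tested as 8–9 point, 3-fold dilution series starting at 1 or 10 µM, versus DMSO only, on cells in RPMI 1640 with 10% FBS.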

HCT116 WT cells = assay: HCT116 proliferation assay, WT cells (CellTiter-Glo, 6 days); format: cell-based; conditions: Homo sapiens, HCT-116, 144 h, read-out: Prolif_HCT116-WT IC50
In short: as §1

PRMT5/MEP50 = PRMT5/MEP50 (Homo sapiens, UniProt O14744); assay: MTase-Glo methyl transferase assay, Method A (Histone H4 peptide, 1 µM MTA, 24 h pre-incubation); format: biochemical; parameters: made in house; conditions: read-out: PRMT5 MTase Glo Ki (nM, Meth. A)
PRMT5/MEP50, sequence (O14744 whole entry): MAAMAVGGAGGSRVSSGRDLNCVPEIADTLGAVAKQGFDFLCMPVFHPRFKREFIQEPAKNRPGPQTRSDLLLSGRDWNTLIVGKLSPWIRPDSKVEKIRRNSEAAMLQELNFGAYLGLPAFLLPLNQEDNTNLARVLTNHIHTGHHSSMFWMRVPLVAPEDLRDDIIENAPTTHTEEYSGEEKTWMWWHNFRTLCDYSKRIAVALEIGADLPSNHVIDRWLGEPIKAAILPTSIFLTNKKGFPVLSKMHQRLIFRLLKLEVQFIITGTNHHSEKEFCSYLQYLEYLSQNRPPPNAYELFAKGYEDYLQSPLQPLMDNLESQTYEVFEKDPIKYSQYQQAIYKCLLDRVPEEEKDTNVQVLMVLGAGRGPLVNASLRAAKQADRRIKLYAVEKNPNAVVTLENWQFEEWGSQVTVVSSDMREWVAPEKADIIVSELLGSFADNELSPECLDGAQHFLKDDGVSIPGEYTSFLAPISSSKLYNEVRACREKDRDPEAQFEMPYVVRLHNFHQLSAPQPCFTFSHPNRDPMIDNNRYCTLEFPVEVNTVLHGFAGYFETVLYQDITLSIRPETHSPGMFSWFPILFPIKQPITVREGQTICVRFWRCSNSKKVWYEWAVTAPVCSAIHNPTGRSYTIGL
PRMT5/MEP50, sequence (Q9BQA1 whole entry partner): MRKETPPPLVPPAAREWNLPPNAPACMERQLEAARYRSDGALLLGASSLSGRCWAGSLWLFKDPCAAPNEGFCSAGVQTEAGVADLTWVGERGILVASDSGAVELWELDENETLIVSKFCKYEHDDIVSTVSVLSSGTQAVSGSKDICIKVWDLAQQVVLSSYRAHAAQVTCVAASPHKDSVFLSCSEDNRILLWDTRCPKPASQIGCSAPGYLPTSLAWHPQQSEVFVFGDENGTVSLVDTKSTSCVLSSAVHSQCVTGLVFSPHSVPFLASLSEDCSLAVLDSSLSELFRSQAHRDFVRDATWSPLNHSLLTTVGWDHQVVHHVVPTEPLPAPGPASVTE
Experimental: Method A: The PRMT5 inhibitory activity of test compounds was determined using the MTase-Glo™ assay (Promega), which monitors the product (S-adenosyl homocysteine or SAH) of methyltransferase reactions. The PRMT5 MTase-Glo assay was conducted in a 384-well white ProxiPlate (PerkinElmer) in a total volume of 12 µL. The PRMT5 enzymatic reaction (in 4 µL) contained 10 nM PRMT5/MEP50 (produced at Amgen), 5 µM S-adenosyl methionine (SAM, Promega), 1 µM Histone H4 (1-21)-Lys(Biotin) (Anaspec), 1 µM 5′-methylthioadenosine (MTA, Sigma) and two-fold serially diluted compounds in a reaction buffer of 50 mM Tris (pH 8.0), 50 mM NaCl, 0.01% Tween 20, 0.01% BSA, and 1 mM DTT. Test compounds were pre-incubated with PRMT5/MEP50, SAM, and MTA for 24 hours before addition of Histone H4 peptide to initiate the PRMT5 reaction. The reaction was allowed to proceed for 2 hours at room temperature and was then terminated by addition of 2 µL of 3X MTase-Glo™ Reagent (Promega) and 150 µM EPZ015666 (Sigma). After a 30-minute incubation at room temperature, 6 µL of MTase-Glo™ Detection Solution (Promega) was added and the plate was incubated at room temperature for an additional 30 minutes. The light signal corresponding to the amount of SAH produced by the PRMT5 reaction was subsequently measured using an Envision multimode reader (PerkinElmer). IC50 and KI values were obtained by analyzing dose-response curves using Genedata Screener (Genedata).

| SMILES | IC50 (HCT116 MTAP null cells; HCT116-MTAP null) [nM] | IC50 (HCT116 WT cells) [nM] | Ki (PRMT5/MEP50) [nM] | IC50 (HCT116 MTAP null cells) [nM] |
| --- | --- | --- | --- | --- |
| Cc1cc2cc(C(=O)N(Cc3ccc(S(C)(=O)=O)cn3)[C@H](C)c3ncccc3F)ccc2nc1N [Example 541, (R)-2-amino-N-((5-(methylsulfonyl)pyridin-2-yl)methyl)-N-(1-(3-fluoropyridin-2-yl)ethyl)-3-methylquinoline-6-carboxamide] | 198 | 4140 | 0.13 |  |
| COC[C@H](c1ccccn1)N(Cc1ccc(C(F)(F)F)cn1)C(=O)c1ccc2nc(N)c(C)cc2c1 (single isomer, unassigned) [Example 530] | 108 | 1710 | 0.18 |  |
| Cc1cc2cc(C(=O)N(Cc3ccc(OC(F)(F)F)cn3)[C@H](C)c3ncccn3)ccc2nc1N (single isomer, unassigned) [Example 487] | 26 | 730 | 0.04 |  |
| Cc1cc2cc(C(=O)N(Cc3ccc(C(F)F)cn3)[C@H](C)c3ncccn3)ccc2nc1N [Example 508, 2-amino-N-((5-(difluoromethyl)-2-pyridinyl)methyl)-3-methyl-N-((1R)-1-(2-pyrimidinyl)ethyl)-6-quinolinecarboxamide] | 56 | 1700 | 0.73 |  |
| Cc1cc2cc(C(=O)N(Cc3ncc(C(F)(F)F)cc3Cl)[C@H](C)c3ncccc3F)ccc2nc1N [Example 396, 2-amino-N-((3-chloro-5-(trifluoromethyl)-2-pyridinyl)methyl)-N-((1R)-1-(3-fluoro-2-pyridinyl)ethyl)-3-methyl-6-quinolinecarboxamide] | 793 | > 10000 | 0.27 |  |
| Cc1cc2cc(C(=O)N(Cc3ccc(C(F)(F)F)cn3)C3CC3)c(F)cc2nc1N [Example 332, 2-amino-N-cyclopropyl-7-fluoro-3-methyl-N-((5-(trifluoromethyl)-2-pyridinyl)methyl)-6-quinolinecarboxamide] | 479 | 5140 | 4.87 |  |
| Cc1cc2cc(C(=O)N(Cc3ccc(C(=O)N(C)C)cn3)Cc3ncccc3F)ccc2nc1N [Example 560, 2-amino-N-((5-(dimethylcarbamoyl)-2-pyridinyl)methyl)-N-((3-fluoro-2-pyridinyl)methyl)-3-methyl-6-quinolinecarboxamide] | 623 | > 10000 | 0.2 |  |
| Cc1cc2cc(C(=O)N(Cc3ccc(C(N)=O)cn3)[C@H](C)c3ccccc3F)ccc2nc1N [Example 550, 2-amino-N-((5-carbamoyl-2-pyridinyl)methyl)-N-((1R)-1-(2-fluorophenyl)ethyl)-3-methyl-6-quinolinecarboxamide] | 199 | 5930 | 0.14 |  |
| Cc1cc2cc(C(=O)N(Cc3cncc(Cl)c3)Cc3ccc(C(F)(F)F)cn3)ccc2nc1N [Example 439, 2-amino-N-((5-chloro-3-pyridinyl)methyl)-3-methyl-N-((5-(trifluoromethyl)-2-pyridinyl)methyl)-6-quinolinecarboxamide] | 344 | > 10000 | 1.19 |  |
| Cc1cc2cc(C(=O)N(Cc3ccc(C#N)cn3)[C@H](C)c3ncn(C)n3)ccc2nc1N (single isomer, unassigned) [Example 531] | 78 | 2830 | 0.1 |  |
| Cc1cc2cc(C(=O)N(Cc3ccc(C(F)(F)F)nn3)[C@H](C)c3cscn3)ccc2nc1N (single isomer, unassigned) [Example 533] | 19 | 755 | 0.02 |  |
| Cc1cc2cc(C(=O)N(Cc3ccc(Cl)cn3)Cc3ncccn3)ccc2nc1N [Example 340, 2-amino-N-((5-chloro-2-pyridinyl)methyl)-3-methyl-N-(2-pyrimidinylmethyl)-6-quinolinecarboxamide] | 505 | > 10000 | 1.39 |  |
| C[C@H](c1ncccn1)N(Cc1ccc(C(F)(F)F)nn1)C(=O)c1cnc2nc(N)c(Br)cc2c1 (single isomer, unassigned) [Example 444] | 327 | > 10000 | 0.15 |  |
| Cc1nc(CN(C(=O)c2cnc3nc(N)c(Br)cc3c2)[C@H](C)c2ncccn2)ccc1Br (single isomer, unassigned) [Example 470] | 93 | 2210 | 0.09 |  |
| C[C@H](c1ncccn1)N(Cc1ccc(C(F)(F)F)cn1)C(=O)c1cnc2nc(N)c(Cl)cc2c1 [Example 420, 7-amino-6-chloro-N-((1R)-1-(2-pyrimidinyl)ethyl)-N-((5-(trifluoromethyl)-2-pyridiny1)methyl)-1,8-naphthyridine-3-carboxamide] | 225 | 3450 | 0.18 |  |
| Cc1cc2cc(C(=O)N(Cc3ccc(C(F)(F)F)cn3)Cc3cnccn3)c(F)cc2nc1N [Example 315, 2-amino-7-fluoro-3-methyl-N-(2-pyrazinylmethyl)-N-((5-(trifluoromethyl)-2-pyridinyl)methyl)-6-quinolinecarboxamide] | 181 | 4340 | 0.25 |  |
| COC[C@@H](c1ccccn1)N(Cc1ccc(C(F)(F)F)cn1)C(=O)c1ccc2nc(N)c(C)cc2c1 (single isomer, unassigned) [Example 529] | 258 | 4240 | 1.69 |  |
| Cc1cc2cc(C(=O)N(Cc3ccc(C(F)(F)F)cn3)[C@@H]3CCCC(F)(F)[C@@H]3O)ccc2nc1N (single isomer, unassigned) [Example 466] | 269 | 4270 | 0.13 |  |
| [2H]C([2H])([2H])Oc1ccc(CN(C(=O)c2ccc3nc(N)c(C)cc3c2)[C@H](C)c2ncccn2)nc1 (single isomer, unassigned) [Example 493] | 146 | 4080 | 0.26 |  |
| Cc1cc2cc(C(=O)N(Cc3ncc(C(F)(F)F)cc3F)CC(C)C)ccc2nc1N [Example 308, 2-amino-N-((3-fluoro-5-(trifluoromethyl)-2-pyridinyl)methyl)-3-methyl-N-(2-methylpropyl)-6-quinolinecarboxamide] | 620 | > 10000 | 2.34 |  |
| Cc1cc2cc(C(=O)N(Cc3ccc(C(F)(F)F)cn3)Cc3ncccc3F)c(F)cc2nc1N [Example 310, 2-amino-7-fluoro-N-((3-fluoro-2-pyridinyl)methyl)-3-methyl-N-((5-(trifluoromethyl)-2-pyridinyl)methyl)-6-quinolinecarboxamide] | 67 | 1600 | 0.29 |  |
| [2H]C([2H])([2H])c1cc2cc(C(=O)N(Cc3ccc(C(F)(F)F)cn3)[C@H](C)c3ncccc3F)ccc2nc1N [Example 440, (R)-2-amino-N-(1-(3-fluoropyridin-2-yl)ethyl)-3-(methyl-d3)-N-((5-(trifluoromethyl)pyridin-2-yl)methyl)quinoline-6-carboxamide] |  | 690 | < 0.1 | 38 |
| Cc1cc2cc(C(=O)N(Cc3ccc(C(F)(F)F)cn3)[C@H](C)c3ncccc3F)ccc2nc1N [Example 385, 2-amino-N-((1R)-1-(3-fluoro-2-pyridinyl)ethyl)-3-methyl-N-((5-(trifluoromethyl)-2-pyridinyl)methyl)-6-quinolinecarboxamide] |  | 1310 | 0.08 | 55 |
| Cc1cc2cc(C(=O)N(Cc3ccc(C(F)(F)F)cn3)Cc3ncccc3F)ncc2nc1N [Example 312, 2-amino-N-((3-fluoro-2-pyridinyl)methyl)-3-methyl-N-((5-(trifluoromethyl)-2-pyridinyl)methyl)-1,7-naphthyridine-6-carboxamide] | 806 | > 10000 | 0.36 |  |
| Cc1cc2cc(C(=O)N(Cc3ccc(C(F)(F)F)nn3)[C@H](C)c3ncccc3Cl)ccc2nc1N (single isomer, unassigned) [Example 525] | 598 | 7610 | 0.23 |  |
| Cc1cc2cc(C(=O)N(Cc3ccc(C(=O)N(C)C)cn3)[C@H](C)c3ncccc3F)ccc2nc1N [Example 561, 2-amino-N-((5-(dimethylcarbamoyl)-2-pyridinyl)methyl)-N-((1R)-1-(3-fluoro-2-pyridinyl)ethyl)-3-methyl-6-quinolinecarboxamide] | 895 | > 10000 | 0.3 |  |
| Cc1cc2cc(C(=O)N(CC(C)C)[C@H](C)c3ccc(C(F)(F)F)cn3)ccc2nc1N (single isomer, unassigned) [Example 472] | 889 | > 10000 | 1.04 |  |
